Assay results published in patent US20240109912A1, “TRICYCLIC PYRIMIDINES AS CYCLIN-DEPENDENT KINASE 7 (CDK7) INHIBITORS” (JANSSEN PHARMACEUTICA NV, priority 2020, published 2024).
Where “and” joins values, the source holds several entries; their conditions need not be identical. Identical values can stand only once. Like-named read-outs stand apart in the source and are kept apart here.

How the values were obtained:
[1] = target: CDK7/cyclinH/MAT1 trimeric complex (Homo sapiens (Human), UniProt P50613); assay: In vitro CDK7 assay, potency of irreversible covalent inhibitors (kinact/KI)
CDK7/cyclinH/MAT1 trimeric complex, sequence (P50613 whole entry): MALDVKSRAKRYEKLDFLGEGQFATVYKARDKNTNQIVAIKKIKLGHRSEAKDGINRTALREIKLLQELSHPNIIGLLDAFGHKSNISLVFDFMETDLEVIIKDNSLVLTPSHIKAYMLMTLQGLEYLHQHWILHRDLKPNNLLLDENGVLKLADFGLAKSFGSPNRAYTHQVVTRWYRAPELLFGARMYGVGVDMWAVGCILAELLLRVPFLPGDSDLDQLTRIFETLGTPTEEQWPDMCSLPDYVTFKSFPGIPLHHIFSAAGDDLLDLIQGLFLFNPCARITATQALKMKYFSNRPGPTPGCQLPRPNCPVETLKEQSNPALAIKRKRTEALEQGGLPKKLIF
CDK7/cyclinH/MAT1 trimeric complex, sequence (P51946 whole entry partner): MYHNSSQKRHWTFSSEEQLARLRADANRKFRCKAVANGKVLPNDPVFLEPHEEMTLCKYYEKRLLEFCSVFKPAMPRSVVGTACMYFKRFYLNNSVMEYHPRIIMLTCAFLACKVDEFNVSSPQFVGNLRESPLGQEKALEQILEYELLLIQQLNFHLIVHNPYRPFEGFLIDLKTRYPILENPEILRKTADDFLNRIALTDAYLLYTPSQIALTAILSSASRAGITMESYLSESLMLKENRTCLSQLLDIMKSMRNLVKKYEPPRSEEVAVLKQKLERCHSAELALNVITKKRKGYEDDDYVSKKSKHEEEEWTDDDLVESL
CDK7/cyclinH/MAT1 trimeric complex, sequence (P51948 whole entry partner): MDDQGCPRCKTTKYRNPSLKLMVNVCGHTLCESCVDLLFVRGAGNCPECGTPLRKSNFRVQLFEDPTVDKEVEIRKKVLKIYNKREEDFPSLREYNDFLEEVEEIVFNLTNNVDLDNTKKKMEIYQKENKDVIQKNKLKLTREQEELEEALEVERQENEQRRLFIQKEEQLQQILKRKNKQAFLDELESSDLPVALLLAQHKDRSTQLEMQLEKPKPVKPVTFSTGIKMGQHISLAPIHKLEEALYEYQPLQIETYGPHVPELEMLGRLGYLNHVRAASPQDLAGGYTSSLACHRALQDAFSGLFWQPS

[2] = test system: RNA polymerase II Serine 5 phosphorylation (CDK7) in A549 cells
[3] = test system: RNA polymerase II Serine 5 phosphorylation in A549 cells overexpressing CDK7 mutant (C312S); assay: Imaging-based cellular RNA PolII Ser5 phosphorylation assay in A549 cells overexpressing CDK7-mutant (C312S); assay type: cell-based, human; conditions: for IC50: Homo sapiens, A549, A549 cells overexpressing CDK7 mutant (C312S), read-out: CDK7_ A549 mutant hCDK7(pIC50) (converted)
Summary of the method: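 A stably transduced A549 pool overexpressing CDK7 C312S, a mutant that blocks covalent binding at Cys312, while retaining endogenous wild-type CDK7 was used. Ser5 phosphorylation was measured by imaging, and IC50 values were derived.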

[4] = CDK7 (20 nM enz.) (KI, μM), 20 nM enz.
[5] = read-out: CDK7 (20 nM enz.) (kinact, s^−1), 20 nM enz.
[6] = read-out: CDK7 (20 nM enz.) (kinact/ KI, M^−1*s^−1), 20 nM enz.
[7] = read-out: CDK7 (kinact, s^−1), Table B
[8] = read-out: CDK7 (kinact/KI, M^−1*s^−1), Table B

SMILES | Ki [1, 4] | kinact [1, 5] [s⁻¹] | kinact/KI [1, 6] [M⁻¹ s⁻¹] | IC50 [2] | melting point [°C] | IC50 [3] [µM] | Ki ([1]; CDK7 (KI(μM)), Table B) | CDK7 (kinact, s^−1) ([1]; Table B) [s⁻¹] | CDK7 (kinact/KI, M^−1*s^−1) ([1]; Table B) [M⁻¹ s⁻¹] | kinact [1, 7] [s⁻¹] | kinact/KI [1, 8] [M⁻¹ s⁻¹] | kinact/KI ([1]; read-out: CDK7 (20 nM enz.) (kobs/[I], M^−1*s^−1), 20 nM enz.) [M⁻¹ s⁻¹] | CDK7 (20 nM enz.) (kinact, s^−1) ([1]; 20 nM enz.) | CDK7 (20 nM enz.) (kinact/ KI, M^−1*s^−1) ([1]; 20 nM enz.) | CDK7_ A549 mutant hCDK7(pIC50) ([3]; A549 cells overexpressing CDK7 mutant (C312S))
C=CC(=O)N1CC(N2CCC(c3ccc4c(c3)Nc3ncnc(N5CCOCC5)c3[C@H](CC)O4)CC2)C1 (single isomer, unassigned) [compound 75] | 0.265 µM | 3.84e-05 | 145 | 646 nM | 123 | > 10 | – | – | – | – | – | – | – | – | –
C=CC(=O)N1CC(N2CCC(c3ccc4c(c3)Nc3ncnc(N5CCOCC5)c3[C@@H](CC)O4)CC2)C1 (single isomer, unassigned) [compound 76] | 0.457 µM | 3.9e-05 | 85.3 | 1660 nM | 124 | > 10 | – | – | – | – | – | – | – | – | –
C=CC(=O)N1CCC(N2CC(c3cc4c(c(C(F)(F)F)c3)OCc3c(ncnc3N3CCOCC3)N4)C2)CC1 [compound 45] | 0.219 µM | 4.44e-05 | 203 | 427 nM | 158 | > 10 | – | – | – | – | – | – | – | – | –
C=CC(=O)N1CC[C@H](N2CC(c3cc4c(c(C5CC5)c3)OCc3c(ncnc3N3CCS(=O)(=O)CC3)N4)C2)C1 (single isomer, unassigned) [compound 94] | 0.498 µM | 8.53e-05 | 171 | 537 nM | 167 | > 10 | – | – | – | – | – | – | – | – | –
C=CC(=O)N1CC(N2CCC(c3cc(Cl)c4c(c3)Nc3ncnc(N5CCOCC5)c3CO4)CC2)C1 [compound 42] | 0.0282 µM | 4.14e-05 | 1460 | 372 nM | > 300 | > 10 | – | – | – | – | – | – | – | – | –
C=CC(=O)N1CC(N2CCC(c3cc4c(c(C)n3)O[C@@H](C)c3c(ncnc3N3CCS(=O)(=O)CC3)N4)CC2)C1 (single isomer, unassigned) [compound 86] | 0.117 µM | 6.46e-05 | 551 | 525 nM | 247 | > 10 | – | – | – | – | – | – | – | – | –
C=CC(=O)N1CC(N2CCC(c3cc4c(cn3)OCc3c(ncnc3N3CCOCC3)N4)CC2)C1 [compound 48] | 0.232 µM | 5.9e-05 | 254 | 776 nM | 220 | > 10 | – | – | – | – | – | – | – | – | –
C=CC(=O)N1CC(N2CCC(c3cc(C)c4c(c3)Nc3ncnc(N5CC(CO)C5)c3CO4)CC2)C1 [compound 107] | 0.96 µM | 5.21e-05 | 54.3 | 3890 nM | 180 | > 10 | – | – | – | – | – | – | – | – | –
C=CC(=O)N1CC(N2CC[C@@H](c3ccc4c(c3)Nc3ncnc(N5CCOCC5)c3CO4)[C@@H](C)C2)C1 [compound 36] | – | – | – | 741 nM and 479 nM | 232 | > 10 | 0.0803 µM and 0.233 µM | 0.0001256 | 539.8 | 8.19e-05 | 1020 | – | – | – | –
C=CC(=O)N1CC[C@H](N2CC(c3cc4c(c(C5CC5)c3)O[C@H](C)c3c(ncnc3N3CCS(=O)(=O)CC3)N4)C2)C1 (single isomer, unassigned) [compound 95] | 0.0708 µM | 2.35e-05 | 332 | ~955 nM | 193 | > 10 | – | – | – | – | – | – | – | – | –
C=CC(=O)N1CC(N2CCCC(c3ccc4c(c3)Nc3ncnc(N5CCOCC5)c3CO4)C2)C1 (stereo not drawn) [compound 35] | – | – | – | ~7940 nM | 175 | > 10 | 2.05 µM | – | – | 8.56e-05 | 41.8 | – | – | – | –
C=CC(=O)N1CC(N2CCN(c3cc4c(cn3)OCc3c(ncnc3N3CCOCC3)N4)CC2)C1 [compound 71] | 3.2 µM | 7.12e-05 | 22.2 | 1350 nM | 256 | > 10 | – | – | – | – | – | – | – | – | –
C=CC(=O)N1CC(N2C3CCC2CC(c2ccc4c(c2)Nc2ncnc(N5CCOCC5)c2CO4)C3)C1 (stereo not drawn) [compound 41] | 0.991 µM and 0.898 µM | – | – | 1200 nM and 1320 nM | 208 | – | – | – | – | – | – | – | 5.55e-05 s⁻¹ and 5.25e-05 s⁻¹ | 56 M⁻¹ s⁻¹ and 58.5 M⁻¹ s⁻¹ | <5
C=CC(=O)N1CCC(N2CC(c3cc4c(c(C)n3)OCc3c(ncnc3N3CCS(=O)(=O)CC3)N4)C2)C1 (stereo not drawn) [compound 77] | 0.172 µM | 3.83e-05 | 223 | 4070 nM | > 300 | > 10 | – | – | – | – | – | – | – | – | –
C=CC(=O)N1CC(C2CCN(c3ccc4c(c3)Nc3ncnc(N5CCOCC5)c3CO4)CC2)C1 [compound 7] | – | – | – | 6760 nM | 234 | > 10 | 1.79 µM | – | – | 0.000178 | 99.5 | – | – | – | –
C=CC(=O)N1CC(N2C3CCC2CC(c2ccc4c(c2)Nc2ncnc(N5CCOCC5)c2CO4)C3)C1 (stereo not drawn) [compound 40] | 0.16 µM | 5.56e-05 | – | 437 nM | 212 | > 10 | – | – | – | – | – | – | – | 347 M⁻¹ s⁻¹ | –
C=CC(=O)N1CC(N2CCC(c3cc4c(c(C)n3)OCc3c(ncnc3N3CCS(=O)(=O)CC3)N4)CC2)C1 [compound 58] | 0.0451 µM | 5.57e-05 | 1240 | 288 nM | 257 | > 10 | – | – | – | – | – | – | – | – | –
C=CC(=O)N1CC(N2CCC(c3cc4c(cc3C#N)OCc3c(ncnc3N3CCOCC3)N4)CC2)C1 [compound 61] | 0.83 µM | 5.1e-05 | 61.4 | 2000 nM | > 300 | > 10 | – | – | – | – | – | – | – | – | –
C=CC(=O)N1CC(N2CCC(c3ccc4c(c3)Nc3ncnc(N5CCOCC5)c3CO4)CC2C)C1 (stereo not drawn) [compound 34] | – | – | – | 1000 nM | 213 | > 10 | 0.258 µM | – | – | 0.000186 | 721 | – | – | – | –

Second part, led by results:

Ki [1, 4] | kinact [1, 5] [s⁻¹] | kinact/KI [1, 6] [M⁻¹ s⁻¹] | IC50 [2] | melting point [°C] | IC50 [3] [µM] | Ki ([1]; CDK7 (KI(μM)), Table B) | CDK7 (kinact, s^−1) ([1]; Table B) [s⁻¹] | CDK7 (kinact/KI, M^−1*s^−1) ([1]; Table B) [M⁻¹ s⁻¹] | kinact [1, 7] [s⁻¹] | kinact/KI [1, 8] [M⁻¹ s⁻¹] | kinact/KI ([1]; read-out: CDK7 (20 nM enz.) (kobs/[I], M^−1*s^−1), 20 nM enz.) [M⁻¹ s⁻¹] | SMILES | CDK7 (20 nM enz.) (kinact, s^−1) ([1]; 20 nM enz.) | CDK7 (20 nM enz.) (kinact/ KI, M^−1*s^−1) ([1]; 20 nM enz.) | CDK7_ A549 mutant hCDK7(pIC50) ([3]; A549 cells overexpressing CDK7 mutant (C312S))
0.0068 µM | 2.76e-05 | 4030 | 234 nM | 220 | > 10 | – | – | – | – | – | – | C=CC(=O)N1CCC(N2CC(c3cc4c(c(C5CC5)c3)O[C@@H](C)c3c(ncnc3N3CCS(=O)(=O)CC3)N4)C2)C1 (mixture of isomers) [compound 97] | – | – | –
0.16 µM | 5.91e-05 | 370 | 115 nM | 189 | > 10 | – | – | – | – | – | – | CC#CC(=O)N1CC(N2CCC(c3cc(C)c4c(c3)Nc3ncnc(N5CCS(=O)(=O)CC5)c3CO4)CC2)C1 [compound 151] | – | – | –
0.0485 µM | 4.48e-05 | 923 | 34.7 nM | 256 | 8.13 | – | – | – | – | – | – | C=CC(=O)N1CCC(N2CCC(c3cc(C)c4c(c3)Nc3ncnc(N5CCS(=O)(=O)CC5)c3CO4)CC2)CC1 [compound 88] | – | – | –
0.118 µM | 5.65e-05 | 478 | 178 nM | 180 | > 10 | – | – | – | – | – | – | C=CC(=O)N1CC(N2CCC(c3cc(F)c4c(c3)Nc3ncnc(N5CCOCC5)c3[C@H](C)O4)CC2)C1 (single isomer, unassigned) [compound 49] | – | – | –
0.0406 µM | 5.75e-05 | 1420 | 110 nM | 267 | > 10 | – | – | – | – | – | – | C=CC(=O)N1CCN(C2CCN(c3cc(C)c4c(c3)Nc3ncnc(N5CCS(=O)(=O)CC5)c3CO4)CC2)CC1 [compound 91] | – | – | –
0.0874 µM | 5.36e-05 | 613 | 257 nM | 240 | > 10 | – | – | – | – | – | – | CC#CC(=O)N1CCC(N2CCN(c3cc(C)c4c(c3)Nc3ncnc(N5CCS(=O)(=O)CC5)c3CO4)CC2)CC1 [compound 136] | – | – | –
0.0715 µM | 5.06e-05 | 708 | 151 nM | 259 | > 10 | – | – | – | – | – | – | C=CC(=O)N1CCC(N2CCC(c3cc4c(c(C)n3)OCc3c(ncnc3N3CCS(=O)(=O)CC3)N4)CC2)CC1 [compound 59] | – | – | –
0.173 µM | 2.65e-05 | 153 | 91.2 nM | 180 | 8.51 | – | – | – | – | – | – | CC#CC(=O)N1CCC(N2CC(c3cc(C)c4c(c3)Nc3ncnc(N5CCS(=O)(=O)CC5)c3CO4)C2)CC1 [compound 133] | – | – | –
– | – | – | 67.6 nM | 240 | > 10 | – | – | – | – | – | 725 | C=CC(=O)N1CC(N2CCC(c3cc4c(c(C)n3)O[C@H](C)c3c(ncnc3N3CCS(=O)(=O)CC3)N4)CC2)C1 (single isomer, unassigned) [compound 85] | – | – | –
0.234 µM | 4.3e-05 | 184 | 81.3 nM | 200 | 7.76 | – | – | – | – | – | – | C=CC(=O)N1CCC(N2CC(c3cc(C)c4c(c3)Nc3ncnc(N5CCS(=O)(=O)CC5)c3CO4)C2)CC1 [compound 87] | – | – | –
0.148 µM | 8.33e-05 | 563 | 112 nM | > 300 | > 10 | – | – | – | – | – | – | C=CC(=O)N1CC(N2CCC(c3cc(C)c4c(c3)Nc3ncnc(N5CCS(=O)(=O)CC5)c3[C@@H](C)O4)CC2)C1 (single isomer, unassigned) [compound 84] | – | – | –
